Data published in patent US12564638B2 (SHANGHAITECH UNIVERSITY, priority 2019, dated 2026).
Where two headings read alike, the source gives them in different places.

Key:
Assay type in all cases: cell-based
[1] = test system: PC9BracA1 (EGFR Exon 19 del+T790M, non-small cell lung cancer cells); assay: Cell viability assay (WST/CCK8), PC9Brac1 cells; settings: read-out: IC50 (half inhibitory concentration)
Description: (§1) The cell lines with abnormal EGFR expression used are as follows: • HCC827 cells (EGFR Exon19 del, non-small cell lung cancer cells); • PC9 cells (EGFR Exon 19 del, non-small cell lung cancer cells); • PC9BracA1 (EGFR Exon 19 del+T790M, non-small cell lung cancer cells) • H1975 (EGFR Exon T790M+L858R mutation, non-small cell lung cancer cell line) • BT474 cells (HER2 positive breast cancer cells)
(§2) All of the half inhibitory concentrations (IC50) of these compounds of the present invention were determined with WST reagent from Fuyuan Biotec Company. The specific experiment procedures are as follows: Cancer cells were planted in 96-well-plate at the density of 3 000 cells per well with 100 μL RPMI1640 completed culture medium. In the next day, compounds with indicated concentrations were added to the cells, DMSO was used as the negative control and the EGFR TKIs were used to treat cells as the positive groups. After 72 hours drug treatment, cell viability was measured by using the WST reagent following the instructions.

[2] = test system: H1975 (EGFR T790M+L858R mutation, non-small cell lung cancer cell line); assay: Cell viability assay (WST/CCK8), H1975 cells; settings: Homo sapiens, NCI-H1975, read-out: IC50 (half inhibitory concentration)
Description: as §1, §2

[3] = test system: PC9 cells (EGFR Exon 19 del, non-small cell lung cancer cells); assay: Cell viability assay (WST/CCK8), PC9 cells; settings: Homo sapiens, PC-9, 72 hours, read-out: IC50 (half inhibitory concentration)
How it was run: (§3)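 Plated 3 000 cells/well in complete RPMI1640 the day before dosing; controls were DMSO (negative) and EGFR TKIs (positive).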

[4] = test system: BT474 cells (HER2 positive breast cancer cells); assay: Cell viability assay (CCK8), BT474 cells; settings: Homo sapiens, BT-474, Table 10, BT474, 72 hours, read-out: IC50 (half inhibitory concentration)
How it was run: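 HER2-overexpressing BT474 cells in RPMI1640 were exposed to compounds for 72 hours over 10 concentrations (3-fold dilution, top 10 μM). Viability was measured with CCK8 reagent against a DMSO control, and IC50 was taken from growth inhibition curves.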

[5] = test system: HCC827 cells (EGFR Exon19 del, non-small cell lung cancer cells); assay: Cell viability assay (WST/CCK8), HCC827 cells; settings: Homo sapiens, HCC827, 72 h, 72 hours, read-out: IC50 (half inhibitory concentration)
How it was run: as §3

[6] = PC9Brac1 (Ex19del + T790M), 72 hours, WST
[7] = H1975 (L858R + T790M), 72 hours, WST
[8] = HCC827 (Exon19 Del), WST (CCK8)
[9] = Table 8, osimertinib-based compounds, Pc9Brc1, 72 hours, WST
[10] = Table 8, osimertinib-based compounds, H1975, 72 hours, WST
[11] = Table 8, osimertinib-based compounds, PC9, WST
[12] = Table 8, osimertinib-based compounds, HCC827, WST

| SMILES | IC50 [1, 6] [nM] | IC50 [2, 7] [nM] | IC50 ([3]; PC9 (Exon19 Del), WST (CCK8)) [nM] | IC50 [4] [nM] | IC50 [5, 8] [nM] | IC50 ([1]; Table 7, canertinib-based compounds, PC9Brca1 (Ex19del + T790M)) [nM] | IC50 ([2]; Table 7, canertinib-based compounds, H1975 (L858R + T790M)) [nM] | IC50 [1, 9] [nM] | IC50 [2, 10] [nM] | IC50 [3, 11] [nM] | IC50 [5, 12] [nM] |
| --- | --- | --- | --- | --- | --- | --- | --- | --- | --- | --- | --- |
| C=CC(=O)Nc1cc(Nc2nccc(-c3cn(C)c4ccccc34)n2)c(OC)cc1N(C)CCN(C)CCCCCCSc1cccc2c1CN(C1CCC(=O)NC1=O)C2=O (stereo not drawn) [SIAIS337082, N-(2-((2-((6-((2-(2,6-dioxopiperidin-3-yl)-1-oxoisoindolin-4-yl)thio)hexyl)(methyl)amino)ethyl)(methyl)amino)-4-methoxy-5-((4-(1-methyl-1H-indol-3-yl)pyrimidin-2-yl)amino)phenyl)acrylamide] |  |  |  |  |  |  |  | 218 | 55 | 89 | 8 |
| C=CC(=O)Nc1cc(Nc2nccc(-c3cn(C)c4ccccc34)n2)c(OC)cc1N(C)CCN(C)CCCCCCCCCSc1cccc2c1CN(C1CCC(=O)NC1=O)C2=O (stereo not drawn) [SIAIS337085, N-(2-((2-((9-((2-(2,6-dioxopiperidin-3-yl)-1-oxoisoindolin-4-yl)thio)nonyl)(methyl)amino)ethyl)(methyl)amino)-4-methoxy-5-((4-(1-methyl-1H-indol-3-yl)pyrimidin-2-yl)amino)phenyl)acrylamide] |  |  |  |  |  |  |  | 239 | 462 | 143 | 6 |
| C=CC(=O)Nc1cc(Nc2nccc(-c3cn(C)c4ccccc34)n2)c(OC)cc1N(C)CCN(C)CCCCCCCCCCSc1cccc2c1CN(C1CCC(=O)NC1=O)C2=O (stereo not drawn) [SIAIS337086, N-(2-((2-((10-((2-(2,6-dioxopiperidin-3-yl)-1-oxoisoindolin-4-yl)thio)decyl)(methyl)amino)ethyl)(methyl)amino)-4-methoxy-5-((4-(1-methyl-1H-indol-3-yl)pyrimidin-2-yl)amino)phenyl)acrylamide] |  |  |  |  |  |  |  | 194 | 203 | 64 | 3 |
| C=CC(=O)Nc1cc(Nc2nccc(-c3cn(C)c4ccccc34)n2)c(OC)cc1N(C)CCN(C)CCCCCCCCCCCSc1cccc2c1CN(C1CCC(=O)NC1=O)C2=O (stereo not drawn) [SIAIS337087, N-(2-((2-((11-((2-(2,6-dioxopiperidin-3-yl)-1-oxoisoindolin-4-yl)thio)undecyl)(methyl)amino)ethyl)(methyl)amino)-4-methoxy-5-((4-(1-methyl-1H-indol-3-yl)pyrimidin-2-yl)amino)phenyl)acrylamide] |  |  |  |  |  |  |  | 598 | 242 | 320 | 91 |
| C=CC(=O)Nc1cc(Nc2nccc(-c3cn(C)c4ccccc34)n2)c(OC)cc1N(C)CCN(C)Cc1ccc(CSc2cccc3c2CN(C2CCC(=O)NC2=O)C3=O)cc1 (stereo not drawn) [SIAIS337088, N-(2-((2-((4-(((2-(2,6-dioxopiperidin-3-yl)-1-oxoisoindolin-4-yl)thio)methyl)benzyl)(methyl)amino)ethyl)(methyl)amino)-4-methoxy-5-((4-(1-methyl-1H-indol-3-yl)pyrimidin-2-yl)amino)phenyl)acrylamide] |  |  |  |  |  |  |  | 662 | 239 | 302 | 5 |
| C=CC(=O)Nc1cc(Nc2nccc(-c3cn(C)c4ccccc34)n2)c(OC)cc1N(C)CCN(C)CCCC#Cc1cccc2c1CN(C1CCC(=O)NC1=O)C2=O (stereo not drawn) [SIAIS337089, N-(2-((2-((5-(2-(2,6-dioxopiperidin-3-yl)-1-oxoisoindolin-4-yl)pent-4-yn-1-yl)(methyl)amino)ethyl)(methyl)amino)-4-methoxy-5-((4-(1-methyl-1H-indol-3-yl)pyrimidin-2-yl)amino)phenyl)acrylamide] |  |  |  |  |  |  |  | 107 | 16 | 82 | 15 |

Other lines, results leading:

| IC50 [1, 6] [nM] | IC50 [2, 7] [nM] | IC50 ([3]; PC9 (Exon19 Del), WST (CCK8)) [nM] | IC50 [4] [nM] | IC50 [5, 8] [nM] | IC50 ([1]; Table 7, canertinib-based compounds, PC9Brca1 (Ex19del + T790M)) [nM] | IC50 ([2]; Table 7, canertinib-based compounds, H1975 (L858R + T790M)) [nM] | IC50 [1, 9] [nM] | IC50 [2, 10] [nM] | IC50 [3, 11] [nM] | IC50 [5, 12] [nM] | SMILES |
| --- | --- | --- | --- | --- | --- | --- | --- | --- | --- | --- | --- |
| 481 | 952 | 7.9 | 39.3 | 3 |  |  |  |  |  |  | COc1cc2ncnc(Nc3ccc(F)c(Cl)c3)c2cc1NC(=O)/C=C/CN1CCC(NC(=O)CCCCCCNc2cccc3c2C(=O)N(C2CCC(=O)NC2=O)C3=O)CC1 (stereo not drawn) [SIAIS249085, (E)-N-(1-(4-((4-((3-chloro-4-fluorophenyl)amino)-7-methoxyquinazolin-6-yl)amino)-4-oxobut-2-en-1-yl)piperidin-4-yl)-7-((2-(2,6-dioxopiperidin-3-yl)-1,3-dioxoisoindolin-4-yl)amino)heptanamide] |
| 260 | 511 | 6.7 | 0.3 | 2.4 |  |  |  |  |  |  | COc1cc2ncnc(Nc3ccc(F)c(Cl)c3)c2cc1NC(=O)/C=C/CN1CCC(N2CCN(C(=O)CNc3cccc4c3C(=O)N(C3CCC(=O)NC3=O)C4=O)CC2)CC1 (stereo not drawn) [SIAIS262036, (E)-N-(4-((3-chloro-4-fluorophenyl)amino)-7-methoxyquinazolin-6-yl)-4-(4-(4-(2-((2-(2,6-dioxopiperidin-3-yl)-1,3-dioxoisoindolin-4-yl)amino)acetyl)piperazin-1-yl)piperidin-1-yl)but-2-enamide] |
| 488 | 550 | 7.2 | 33.7 | 4 |  |  |  |  |  |  | COc1cc2ncnc(Nc3ccc(F)c(Cl)c3)c2cc1NC(=O)/C=C/CN1CCC(NC(=O)CCCCCCSc2cccc3c2CN(C2CCC(=O)NC2=O)C3=O)CC1 (stereo not drawn) [SIAIS262115, (E)-N-(1-(4-((4-((3-chloro-4-fluorophenyl)amino)-7-methoxyquinazolin-6-yl)amino)-4-oxobut-2-en-1-yl)piperidin-4-yl)-7-((2-(2,6-dioxopiperidin-3-yl)-1-oxoisoindolin-4-yl)thio)heptanamide] |
| 205 | 299 | 3.8 | 63.2 | 3 |  |  |  |  |  |  | COc1cc2ncnc(Nc3ccc(F)c(Cl)c3)c2cc1NC(=O)/C=C/CN1CCC(NC(=O)CCCCCCCCCCSc2cccc3c2CN(C2CCC(=O)NC2=O)C3=O)CC1 (stereo not drawn) [SIAIS262118, (E)-N-(1-(4-((4-((3-chloro-4-fluorophenyl)amino)-7-methoxyquinazolin-6-yl)amino)-4-oxobut-2-en-1-yl)piperidin-4-yl)-11-((2-(2,6-dioxopiperidin-3-yl)-1-oxoisoindolin-4-yl)thio)undecanamide] |
|  |  |  | 11.9 |  | 1060 | 250 |  |  |  |  | C=CC(=O)Nc1cc2c(Nc3ccc(F)c(Cl)c3)ncnc2cc1OCCCN1CCC(N2CCN(CCCCCCNc3cccc4c3C(=O)N(C3CCC(=O)NC3=O)C4=O)CC2)CC1 (stereo not drawn) [SIAIS262183, N-(4-((3-chloro-4-fluorophenyl)amino)-7-(3-(4-(4-(6-((2-(2,6-dioxopiperidin-3-yl)-1,3-dioxoisoindolin-4-yl)amino)hexyl)piperazin-1-yl)piperidin-1-yl)propoxy)quinazolin-6-yl)acrylamide] |
|  |  |  |  |  |  |  | 676 | 494 | 512 | 46 | C=CC(=O)Nc1cc(Nc2nccc(-c3cn(C)c4ccccc34)n2)c(OC)cc1N(C)CCN(C)CCCCCCCSc1cccc2c1CN(C1CCC(=O)NC1=O)C2=O (stereo not drawn) [SIAIS337083, N-(2-((2-((7-((2-(2,6-dioxopiperidin-3-yl)-1-oxoisoindolin-4-yl)thio)heptyl)(methyl)amino)ethyl)(methyl)amino)-4-methoxy-5-((4-(1-methyl-1H-indol-3-yl)pyrimidin-2-yl)amino)phenyl)acrylamide] |
